# According to patent publication US20070098685A1, “Methods and kits to treat chronic inflammatory immune diseases by administering a proteasome inhibitor and an interleukin 2 receptor agonist” (priority 2005, published 2007):
# Where two headings read alike, the source gives them in different places.
# Assays:
# [1] = molecular target: T1, high affinity IL2 receptor (Homo sapiens, UniProt P01589+P14784+P31785); conditions: high affinity IL2 receptor on activated T cells; cited from earlier work
# T1 sequence (P01589 22-272): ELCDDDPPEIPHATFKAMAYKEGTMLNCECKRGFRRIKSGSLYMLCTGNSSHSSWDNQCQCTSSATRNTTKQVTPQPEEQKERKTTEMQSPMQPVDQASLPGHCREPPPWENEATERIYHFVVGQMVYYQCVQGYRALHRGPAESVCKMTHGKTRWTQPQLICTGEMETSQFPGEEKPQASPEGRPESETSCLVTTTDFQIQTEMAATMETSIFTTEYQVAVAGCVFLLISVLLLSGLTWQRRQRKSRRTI
# T1 sequence (P14784 27-551): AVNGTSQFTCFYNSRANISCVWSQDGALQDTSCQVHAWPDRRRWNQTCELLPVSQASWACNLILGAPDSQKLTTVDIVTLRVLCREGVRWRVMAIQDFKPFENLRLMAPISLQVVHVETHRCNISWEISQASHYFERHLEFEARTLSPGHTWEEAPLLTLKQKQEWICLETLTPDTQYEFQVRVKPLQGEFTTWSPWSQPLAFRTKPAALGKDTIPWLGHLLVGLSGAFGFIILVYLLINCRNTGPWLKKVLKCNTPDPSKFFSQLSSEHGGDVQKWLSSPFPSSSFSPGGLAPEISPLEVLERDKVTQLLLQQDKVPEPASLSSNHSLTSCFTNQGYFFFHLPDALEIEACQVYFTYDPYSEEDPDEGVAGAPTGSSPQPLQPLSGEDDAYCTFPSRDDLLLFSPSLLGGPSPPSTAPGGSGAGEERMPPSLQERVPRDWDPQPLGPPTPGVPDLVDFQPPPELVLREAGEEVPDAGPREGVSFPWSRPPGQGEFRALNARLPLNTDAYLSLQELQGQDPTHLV
# T1 sequence (P31785 23-369): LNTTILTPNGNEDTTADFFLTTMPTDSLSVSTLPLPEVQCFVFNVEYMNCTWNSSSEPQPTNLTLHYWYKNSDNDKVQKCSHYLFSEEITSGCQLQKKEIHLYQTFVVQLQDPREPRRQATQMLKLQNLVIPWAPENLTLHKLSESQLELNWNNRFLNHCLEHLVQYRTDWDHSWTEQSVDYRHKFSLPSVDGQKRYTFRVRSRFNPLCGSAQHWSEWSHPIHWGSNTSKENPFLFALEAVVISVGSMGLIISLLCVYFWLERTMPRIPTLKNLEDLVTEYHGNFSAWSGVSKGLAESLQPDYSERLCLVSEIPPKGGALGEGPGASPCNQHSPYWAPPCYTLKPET
# [2] = cited from earlier work
# [3] = in vivo; cited from earlier work
# [4] = humans, cited from earlier work
# [5] = system: CD4Th1 T cell mediated inflammation; test: Delayed type hypersensitivity (DTH) reaction in mice, ear swelling after topical DNFB; assay type: in vivo; conditions: PS 341 0.003 to 0.01 or 0.03 mg/kg co-administered with IL2 (4 ng), FIG. 2
# Description: FIG. 1 is a drawing of a protocol for induction and assay of delayed-type hypersensitivity (DTH) in mice, as a function of time from left to right. Groups of experimental animals are sensitized on two successive days (at time points indicated as days—5 and —4 in the Figure) by application of 2,4-dinitro-1-fluorobenzene (DNFB; obtained from Sigma, St. Louis, Mo) to footpads, the DNFB dissolved in acetone or acetone/olive oil. After an additional day (at time indicated as day—3) proteasome inhibitor PS 341 and interleukin 2 (IL 2) are administered by intraperitoneal injection (IP). Animals are challenged, elicited for a T cell response, with DNFB topically applied to a target tissue such as ears at a point in time […] after administration, the point in time indicated as day 0. Swelling of the target, i.e., ear marker organ or tissue is measured at subsequent time points, exemplified as day 1 in the Figure.
# Groups of experimental and control mice are administered an IL2 dose which is a constant amount (4 ng) in each group with the exception of a group of control animals not administered IL2, and are administered an amount of PS 341 that is varied (from 0.003 to 0.01 or 0.03 mg/kg total weight) in each of the various experimental groups. A control group of mice is administered IL 2 alone (no PS 341). […]
# Inflammation was measured by ear swelling after applying topical DNFB. […]
# [6] = system: blood cell proteasome; conditions: cited from earlier work
# [7] = human subjects, 0.4 mg/m^2; cited from earlier work
# [8] = Animal models of immune disease; assay type: in vivo; conditions: 0.03 mg/kg dose
# Procedure: Without being limited by any particular theory or mechanism, a preferred embodiment of the method is administering systemically a dose of a proteasome inhibitor that gives partial inhibition (20-30%) of red blood cell proteasome activity. In human subjects, a Velcade™ PS-341dose of 0.4 mg/m^2 gave 30% inhibition of blood cell proteasome activity after a single intravenous bolus injection; (Orlowski et al. 2002 J. Clin. Oncol. 20 pp. 4420-27).
# [9] = system: blood cell proteasome; conditions: rats, cited from earlier work
# [10] = cited from earlier work; remark: listed apart in the source
# [11] = animal models and human subjects; cited from earlier work
molecule,measurement,setting,value
des ala-1 serine 125 human interleukin 2 [IL2],Kd,[1],0.01 nM
same,tolerability,[2]; intravenous administration for extended periods,well tolerated
same,tolerability,"[2]; low doses (<20 million Units), repeated daily dosing for many weeks",well tolerated
same,half-life,[3],1.5 h
"CC(C)C[C@H](NC(=O)[C@H](Cc1ccccc1)NC(=O)c1cnccn1)B(O)O [PS-341, Pyz Phe boro leu; Pyz2,5 pyraninecarboxylic acid]",half-life,[4],approximately 24 hours
same,half-life,[4]; listed as Velcade,24 h
same,inhibition of DTH (ear swelling),[5],increasing inhibition of DTH
same,inhibition of blood cell proteasome activity,"[6]; human subjects, 0.4 mg/m^2, single intravenous bolus injection",30%
same,maximal blood cell proteasome inhibition,"[6]; humans, 1.38 mg/m^2 intravenous bolus, one hour after dosing",80%
same,therapeutic efficacy,[7],no significant therapeutic efficacy
same,therapeutic effect,[8],not effective therapeutically
same,tolerability,[8],well tolerated
same,partial proteasome inhibition,[9]; 0.03 mg/kg intravenous bolus dose,20-30%
same,maximal blood cell proteasome inhibition,"[9]; 0.3 mg/kg intravenous bolus, one hour after dosing",80%
same,adverse events,"[10]; human studies, doses that are 1 mg/m^2",adverse events are observed
same,serious adverse events,"[10]; human subjects, dose that causes partial inhibition of blood proteasome activity",does not cause serious adverse events
same,adverse events,"[10]; human subjects, doses less than or equal to 0.4 mg/m^2, multiple administration",No adverse events were observed
same,toxicity,[11],free from substantial toxicity
